# Measured values published in paper PMC3694096, “Development of Novel In Vivo Chemical Probes to Address CNS Protein Kinase Involvement in Synaptic Dysfunction” (PLoS ONE, 2013).
# Assays:
# HIPK1 = target: T1, HIPK1 (Homo sapiens, UniProt Q86Z02); test: Kinome profiler screen; type: biochemical; settings: at 20,000 nM inhibitor; kinase activity remaining
# T1 construct: purchased Millipore KinaseProfiler
# TAO1 = target: T2, TAO1 (Homo sapiens, UniProt Q7L7X3); test: Kinome profiler screen; type: biochemical; settings: at 20,000 nM inhibitor; kinase activity remaining
# T2 construct: purchased Millipore KinaseProfiler
# Fer = target: T3, Fer (Homo sapiens, UniProt P16591); test: Kinome profiler screen; type: biochemical; settings: at 20,000 nM inhibitor; kinase activity remaining
# T3 construct: purchased Millipore KinaseProfiler
# Yes = target: T4, Yes (Homo sapiens, UniProt P07947); test: Kinome profiler screen; type: biochemical; settings: at 20,000 nM inhibitor; kinase activity remaining
# T4 construct: purchased Millipore KinaseProfiler
# PKG1α = target: T5, PKG1α (Homo sapiens, UniProt Q13976); test: Kinome profiler screen; type: biochemical; settings: at 20,000 nM inhibitor; kinase activity remaining
# T5 construct: purchased Millipore KinaseProfiler
# T5 sequence (Q13976 whole entry): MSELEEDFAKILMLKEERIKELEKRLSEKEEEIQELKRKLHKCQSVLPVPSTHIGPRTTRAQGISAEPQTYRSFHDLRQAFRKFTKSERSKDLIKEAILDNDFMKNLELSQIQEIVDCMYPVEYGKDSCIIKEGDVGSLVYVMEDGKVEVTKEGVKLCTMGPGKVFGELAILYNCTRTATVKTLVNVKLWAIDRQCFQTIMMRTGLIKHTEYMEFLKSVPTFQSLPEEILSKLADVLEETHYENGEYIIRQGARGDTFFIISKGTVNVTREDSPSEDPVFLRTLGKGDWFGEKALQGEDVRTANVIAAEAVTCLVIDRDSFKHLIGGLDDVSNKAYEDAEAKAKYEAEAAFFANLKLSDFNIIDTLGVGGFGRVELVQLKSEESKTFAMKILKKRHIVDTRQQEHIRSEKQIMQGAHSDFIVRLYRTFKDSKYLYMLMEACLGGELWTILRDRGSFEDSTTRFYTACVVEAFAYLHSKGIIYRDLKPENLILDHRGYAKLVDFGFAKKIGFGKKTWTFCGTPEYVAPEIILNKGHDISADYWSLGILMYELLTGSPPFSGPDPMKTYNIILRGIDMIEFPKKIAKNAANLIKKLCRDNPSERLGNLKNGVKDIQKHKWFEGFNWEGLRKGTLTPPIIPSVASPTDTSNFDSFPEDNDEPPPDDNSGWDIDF
# FGFR3 = target: T6, FGFR3 (Homo sapiens, UniProt P22607); test: Kinome profiler screen; type: biochemical; settings: at 20,000 nM inhibitor; kinase activity remaining
# T6 construct: purchased Millipore KinaseProfiler
# EphA2 = target: T7, EphA2 (Homo sapiens, UniProt P29317); test: Kinome profiler screen; type: biochemical; settings: at 20,000 nM inhibitor; kinase activity remaining
# T7 construct: purchased Millipore KinaseProfiler
# CDK5/p35 = target: T8, CDK5/p35 (Homo sapiens, UniProt Q00535); test: Kinome profiler screen; type: biochemical; settings: at 20,000 nM inhibitor; kinase activity remaining
# T8 construct: purchased Millipore KinaseProfiler
# CDK5/p25 = target: T9, CDK5/p25 (Homo sapiens, UniProt Q00535); test: Kinome profiler screen; type: biochemical; settings: at 20,000 nM inhibitor; kinase activity remaining
# T9 construct: purchased Millipore KinaseProfiler
# IRR = target: T10, IRR (Homo sapiens, UniProt P14616); test: Kinome profiler screen; type: biochemical; settings: at 20,000 nM inhibitor; kinase activity remaining
# T10 construct: purchased Millipore KinaseProfiler
# SGK = target: T11, SGK (Homo sapiens, UniProt O00141); test: Kinome profiler screen; type: biochemical; settings: at 20,000 nM inhibitor; kinase activity remaining
# T11 construct: purchased Millipore KinaseProfiler
# IRAK4 = target: T12, IRAK4 (Homo sapiens, UniProt Q9NWZ3); test: Kinome profiler screen; type: biochemical; settings: at 20,000 nM inhibitor; kinase activity remaining
# T12 construct: purchased Millipore KinaseProfiler
# PKG1β = target: T13, PKG1β (Homo sapiens, UniProt Q13976); test: Kinome profiler screen; type: biochemical; settings: at 20,000 nM inhibitor; kinase activity remaining
# T13 construct: purchased Millipore KinaseProfiler
# KDR = target: T14, KDR (Homo sapiens, UniProt P35968); test: Kinome profiler screen; type: biochemical; settings: at 20,000 nM inhibitor; kinase activity remaining
# T14 construct: purchased Millipore KinaseProfiler
# cKit(D816H) = target: T15, cKit(D816H) (Homo sapiens, UniProt P10721, D816H); test: Kinome profiler screen; type: biochemical; settings: at 20,000 nM inhibitor; kinase activity remaining
# T15 construct: purchased Millipore KinaseProfiler
# T15 sequence (P10721 26-976 D816H): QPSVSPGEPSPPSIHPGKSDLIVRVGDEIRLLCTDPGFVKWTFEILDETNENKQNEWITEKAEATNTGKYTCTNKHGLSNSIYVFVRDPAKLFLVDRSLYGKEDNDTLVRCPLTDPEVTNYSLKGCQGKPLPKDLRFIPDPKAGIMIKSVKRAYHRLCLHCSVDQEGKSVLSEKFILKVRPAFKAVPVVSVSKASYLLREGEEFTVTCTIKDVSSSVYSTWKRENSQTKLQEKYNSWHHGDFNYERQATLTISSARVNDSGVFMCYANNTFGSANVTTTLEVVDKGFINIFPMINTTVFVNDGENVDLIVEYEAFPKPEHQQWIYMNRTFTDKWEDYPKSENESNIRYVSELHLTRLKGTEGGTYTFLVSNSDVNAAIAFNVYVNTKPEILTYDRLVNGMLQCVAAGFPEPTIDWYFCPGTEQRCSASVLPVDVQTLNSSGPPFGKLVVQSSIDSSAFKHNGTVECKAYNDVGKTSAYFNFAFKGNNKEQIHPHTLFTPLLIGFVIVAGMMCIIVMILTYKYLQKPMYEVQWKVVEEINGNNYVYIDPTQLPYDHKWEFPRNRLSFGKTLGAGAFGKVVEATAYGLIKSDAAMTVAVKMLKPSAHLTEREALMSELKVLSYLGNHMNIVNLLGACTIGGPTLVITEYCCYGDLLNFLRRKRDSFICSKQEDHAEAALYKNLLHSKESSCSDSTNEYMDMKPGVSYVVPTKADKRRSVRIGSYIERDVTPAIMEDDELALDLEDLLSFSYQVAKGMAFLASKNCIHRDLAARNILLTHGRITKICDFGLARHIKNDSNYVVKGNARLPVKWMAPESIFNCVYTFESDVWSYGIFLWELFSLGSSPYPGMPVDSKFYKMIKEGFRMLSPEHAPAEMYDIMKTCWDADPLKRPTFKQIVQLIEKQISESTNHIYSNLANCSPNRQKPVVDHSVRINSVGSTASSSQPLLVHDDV
# CaMKIIγ = target: T16, CaMKIIγ (Homo sapiens, UniProt Q13555); test: Kinome profiler screen; type: biochemical; settings: at 20,000 nM inhibitor; kinase activity remaining
# T16 construct: purchased Millipore KinaseProfiler
# DMPK = target: T17, DMPK (Homo sapiens, UniProt Q09013); test: Kinome profiler screen; type: biochemical; settings: at 20,000 nM inhibitor; kinase activity remaining
# T17 construct: purchased Millipore KinaseProfiler
# MSK1 = target: T18, MSK1 (Homo sapiens, UniProt O75582); test: Kinome profiler screen; type: biochemical; settings: at 20,000 nM inhibitor; kinase activity remaining
# T18 construct: purchased Millipore KinaseProfiler
# CDK2/cyclinE = target: T19, CDK2/cyclinE (Homo sapiens, UniProt P24941); test: Kinome profiler screen; type: biochemical; settings: at 20,000 nM inhibitor; kinase activity remaining
# T19 construct: purchased Millipore KinaseProfiler
# SRPK1 = target: T20, SRPK1 (Homo sapiens, UniProt Q96SB4); test: Kinome profiler screen; type: biochemical
# T20 construct: purchased Millipore KinaseProfiler
# PAK2 = target: T21, PAK2 (Homo sapiens, UniProt Q13177); test: Kinome profiler screen; type: biochemical; settings: at 20,000 nM inhibitor; kinase activity remaining
# T21 construct: purchased Millipore KinaseProfiler
# PAK6 = target: T22, PAK6 (Homo sapiens, UniProt Q9NQU5); test: Kinome profiler screen; type: biochemical; settings: at 20,000 nM inhibitor; kinase activity remaining
# T22 construct: purchased Millipore KinaseProfiler
# T22 sequence (Q9NQU5 whole entry): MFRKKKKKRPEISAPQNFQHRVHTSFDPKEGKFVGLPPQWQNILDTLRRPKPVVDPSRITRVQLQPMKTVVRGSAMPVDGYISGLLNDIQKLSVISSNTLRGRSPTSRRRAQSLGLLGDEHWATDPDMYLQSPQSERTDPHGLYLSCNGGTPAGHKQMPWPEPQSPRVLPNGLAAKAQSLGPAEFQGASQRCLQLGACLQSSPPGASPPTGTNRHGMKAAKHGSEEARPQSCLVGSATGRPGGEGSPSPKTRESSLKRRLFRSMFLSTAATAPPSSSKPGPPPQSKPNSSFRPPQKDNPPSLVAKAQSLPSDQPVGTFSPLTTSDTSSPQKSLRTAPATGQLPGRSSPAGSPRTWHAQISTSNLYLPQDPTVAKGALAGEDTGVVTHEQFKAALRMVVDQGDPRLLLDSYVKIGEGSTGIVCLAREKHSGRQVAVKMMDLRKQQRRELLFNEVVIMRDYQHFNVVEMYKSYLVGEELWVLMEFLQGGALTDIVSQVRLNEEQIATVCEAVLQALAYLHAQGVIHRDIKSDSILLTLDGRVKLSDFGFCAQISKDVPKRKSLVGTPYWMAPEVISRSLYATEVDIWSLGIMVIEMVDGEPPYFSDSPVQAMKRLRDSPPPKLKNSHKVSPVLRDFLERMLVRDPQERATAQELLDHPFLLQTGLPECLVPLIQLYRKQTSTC
# GSK3β = target: T23, GSK3β (Homo sapiens, UniProt P49841); test: Kinome profiler screen; type: biochemical; settings: at 20,000 nM inhibitor; kinase activity remaining
# T23 construct: purchased Millipore KinaseProfiler
# Haspin = target: T24, Haspin (Homo sapiens, UniProt Q8TF76); test: Kinome profiler screen; type: biochemical; settings: at 20,000 nM inhibitor; kinase activity remaining
# T24 construct: purchased Millipore KinaseProfiler
# PASK = target: T25, PASK (Homo sapiens, UniProt Q96RG2); test: Kinome profiler screen; type: biochemical; settings: at 20,000 nM inhibitor; kinase activity remaining
# T25 construct: purchased Millipore KinaseProfiler
# EGFR(L858R) = target: T26, EGFR(L858R) (Homo sapiens, UniProt P00533, L858R); test: Kinome profiler screen; type: biochemical; settings: at 20,000 nM inhibitor; kinase activity remaining
# T26 construct: purchased Millipore KinaseProfiler
# ULK3 = target: T27, ULK3 (Homo sapiens, UniProt Q6PHR2); test: Kinome profiler screen; type: biochemical; settings: at 20,000 nM inhibitor; kinase activity remaining
# T27 construct: purchased Millipore KinaseProfiler
# T27 sequence (Q6PHR2 whole entry): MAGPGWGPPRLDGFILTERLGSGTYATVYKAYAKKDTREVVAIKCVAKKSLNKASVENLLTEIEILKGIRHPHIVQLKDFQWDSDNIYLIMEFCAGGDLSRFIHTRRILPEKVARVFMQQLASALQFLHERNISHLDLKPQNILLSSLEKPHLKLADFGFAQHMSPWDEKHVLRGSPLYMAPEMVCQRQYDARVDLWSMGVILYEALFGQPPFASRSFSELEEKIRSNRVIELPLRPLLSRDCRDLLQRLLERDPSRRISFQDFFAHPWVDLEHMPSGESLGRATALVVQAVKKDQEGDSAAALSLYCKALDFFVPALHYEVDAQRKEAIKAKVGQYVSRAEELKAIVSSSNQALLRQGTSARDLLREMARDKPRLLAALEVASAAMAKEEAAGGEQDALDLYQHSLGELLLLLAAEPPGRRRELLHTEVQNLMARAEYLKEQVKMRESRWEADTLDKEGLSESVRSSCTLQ
# LOK = target: T28, LOK (Homo sapiens, UniProt O94804); test: Kinome profiler screen; type: biochemical
# T28 construct: purchased Millipore
# T28 sequence (O94804 whole entry): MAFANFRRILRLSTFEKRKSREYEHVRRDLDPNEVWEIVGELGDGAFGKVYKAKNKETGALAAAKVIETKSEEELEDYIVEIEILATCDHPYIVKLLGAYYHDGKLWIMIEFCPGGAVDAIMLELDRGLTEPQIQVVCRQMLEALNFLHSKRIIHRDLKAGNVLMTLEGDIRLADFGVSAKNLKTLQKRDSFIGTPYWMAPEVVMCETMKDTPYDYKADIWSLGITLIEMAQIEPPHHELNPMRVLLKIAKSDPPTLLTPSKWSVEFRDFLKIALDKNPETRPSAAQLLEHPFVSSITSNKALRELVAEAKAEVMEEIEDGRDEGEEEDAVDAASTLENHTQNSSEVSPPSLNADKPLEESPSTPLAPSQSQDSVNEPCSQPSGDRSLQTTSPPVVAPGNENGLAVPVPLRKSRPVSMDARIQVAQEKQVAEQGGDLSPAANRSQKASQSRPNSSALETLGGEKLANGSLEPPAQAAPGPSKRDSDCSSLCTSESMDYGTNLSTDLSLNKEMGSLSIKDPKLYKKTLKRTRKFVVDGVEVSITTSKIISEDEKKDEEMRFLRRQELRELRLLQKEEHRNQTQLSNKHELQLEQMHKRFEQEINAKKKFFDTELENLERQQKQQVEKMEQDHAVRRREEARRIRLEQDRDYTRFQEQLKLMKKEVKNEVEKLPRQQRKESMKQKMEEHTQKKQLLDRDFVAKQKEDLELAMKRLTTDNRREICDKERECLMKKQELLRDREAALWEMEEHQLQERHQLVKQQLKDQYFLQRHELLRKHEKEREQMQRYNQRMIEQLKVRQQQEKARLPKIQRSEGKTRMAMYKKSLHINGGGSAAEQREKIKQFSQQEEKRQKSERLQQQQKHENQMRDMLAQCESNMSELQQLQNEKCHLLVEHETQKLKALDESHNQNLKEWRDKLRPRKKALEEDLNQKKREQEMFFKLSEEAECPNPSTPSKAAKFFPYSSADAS
# CaMKIIδ = target: T29, CaMKIIδ (Homo sapiens, UniProt Q13557); test: Kinome profiler screen; type: biochemical; settings: at 20,000 nM inhibitor; kinase activity remaining
# T29 construct: purchased Millipore KinaseProfiler
# Plk1 = target: T30, Plk1 (Homo sapiens, UniProt P53350); test: Kinome profiler screen; type: biochemical; settings: at 20,000 nM inhibitor; kinase activity remaining
# T30 construct: purchased Millipore KinaseProfiler
# GRK6 = target: T31, GRK6 (Homo sapiens, UniProt P43250); test: Kinome profiler screen; type: biochemical
# T31 construct: purchased Millipore KinaseProfiler
# PKBα = target: T32, PKBα (Homo sapiens, UniProt P31749); test: Kinome profiler screen; type: biochemical; settings: at 20,000 nM inhibitor; kinase activity remaining
# T32 construct: purchased Millipore KinaseProfiler
# Flt4 = target: T33, Flt4 (Homo sapiens, UniProt P35916); test: Kinome profiler screen; type: biochemical
# T33 construct: purchased Millipore
# T33 sequence (P35916 25-1363): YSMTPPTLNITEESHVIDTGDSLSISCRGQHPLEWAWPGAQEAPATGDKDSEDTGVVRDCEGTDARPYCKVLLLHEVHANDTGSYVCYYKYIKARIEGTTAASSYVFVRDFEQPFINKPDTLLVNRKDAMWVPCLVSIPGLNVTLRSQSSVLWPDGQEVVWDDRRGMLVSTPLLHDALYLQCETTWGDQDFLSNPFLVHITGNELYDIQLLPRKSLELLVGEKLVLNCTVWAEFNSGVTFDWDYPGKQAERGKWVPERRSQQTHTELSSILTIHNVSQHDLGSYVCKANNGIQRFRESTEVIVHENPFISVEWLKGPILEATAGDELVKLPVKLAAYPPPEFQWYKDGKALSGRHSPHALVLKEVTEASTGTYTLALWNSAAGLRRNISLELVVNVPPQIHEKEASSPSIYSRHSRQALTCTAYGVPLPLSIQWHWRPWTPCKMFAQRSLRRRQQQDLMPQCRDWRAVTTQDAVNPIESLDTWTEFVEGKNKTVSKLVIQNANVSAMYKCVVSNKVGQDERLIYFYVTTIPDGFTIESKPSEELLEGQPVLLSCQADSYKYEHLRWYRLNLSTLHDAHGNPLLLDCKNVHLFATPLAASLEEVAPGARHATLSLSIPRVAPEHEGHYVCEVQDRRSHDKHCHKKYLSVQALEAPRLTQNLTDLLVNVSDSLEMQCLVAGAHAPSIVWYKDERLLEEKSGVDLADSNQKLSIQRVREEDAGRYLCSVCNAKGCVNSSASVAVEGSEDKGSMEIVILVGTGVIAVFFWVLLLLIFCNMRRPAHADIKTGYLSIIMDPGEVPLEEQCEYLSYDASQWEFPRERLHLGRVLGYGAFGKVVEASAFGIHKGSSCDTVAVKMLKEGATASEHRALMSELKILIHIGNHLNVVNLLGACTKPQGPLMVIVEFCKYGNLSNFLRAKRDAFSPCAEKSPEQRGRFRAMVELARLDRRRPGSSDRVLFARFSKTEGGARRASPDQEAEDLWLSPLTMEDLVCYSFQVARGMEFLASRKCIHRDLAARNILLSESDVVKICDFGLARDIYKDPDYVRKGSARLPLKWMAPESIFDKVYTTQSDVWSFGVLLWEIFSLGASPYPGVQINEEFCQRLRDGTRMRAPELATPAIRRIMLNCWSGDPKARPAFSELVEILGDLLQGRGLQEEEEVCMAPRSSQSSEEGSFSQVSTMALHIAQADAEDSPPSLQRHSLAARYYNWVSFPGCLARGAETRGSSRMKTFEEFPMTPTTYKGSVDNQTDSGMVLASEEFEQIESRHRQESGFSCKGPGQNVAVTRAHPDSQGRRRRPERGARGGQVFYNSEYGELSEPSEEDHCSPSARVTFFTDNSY
# MARK1 = target: T34, MARK1 (Homo sapiens, UniProt Q9P0L2); test: Kinome profiler screen; type: biochemical; settings: at 20,000 nM inhibitor; kinase activity remaining
# T34 construct: purchased Millipore KinaseProfiler
# PDGFRα = target: T35, PDGFRα (Homo sapiens, UniProt P16234); test: Kinome profiler screen; type: biochemical; settings: at 20,000 nM inhibitor; kinase activity remaining
# T35 construct: purchased Millipore KinaseProfiler
# [1] = Dose escalation adverse event screen (SHIRPA based); type: in vivo; settings: highest dose at which no adverse events are observed in dose escalation studies, mice
# Source text: Novel compounds were screened in vivo using a standard dose escalation screen in mice coupled with clinical observation and testing based on the SHIRPA mouse phenotype assay paradigm. To obtain insight into the potential for off-target activity with the largest known family of small molecule drug targets, G-protein coupled receptors (GPCRs), a cell-based functional screen of the final title compounds was done. The Millipore® GPCR Profiler screen employs the ChemiScreen GPCR stable cell line technology used for real-time calcium flux FLIPR assays on a panel of 158 GPCRs to detect both antagonists and agonists. The NCBI Entrez identifier for each GPCR is provided at the vendor site (www.millipore.com). Follow-up validation of any initial hits as being true positives or negatives was done as described above for protein kinases by testing the concentration dependence of any cellular effects. No validated hits were detected.
# PI3 Kinase (p110δ/p85α) = target: T36, PI3 Kinase (p110δ/p85α) (Homo sapiens, UniProt O00329); test: Kinome profiler screen; type: biochemical; settings: at 20,000 nM inhibitor; kinase activity remaining
# T36 construct: purchased Millipore KinaseProfiler
# Snk = target: T37, Snk (Homo sapiens, UniProt Q9NYY3); test: Kinome profiler screen; type: biochemical; settings: at 20,000 nM inhibitor; kinase activity remaining
# T37 construct: purchased Millipore KinaseProfiler
# EphB1 = target: T38, EphB1 (Homo sapiens, UniProt P54762); test: Kinome profiler screen; type: biochemical
# T38 construct: purchased Millipore KinaseProfiler
# [2] = at 20,000 nM inhibitor, kinase activity remaining
smiles,measurement,setting,value
"CN(C)c1cc(-c2ccncc2)c(-c2ccc3ccccc3c2)nn1 [MW108, N, N-dimethyl-6-(naphthalen-2-yl)-5-(pyridin-4-yl)pyridazin-3-amine]",activity at 20 µM,HIPK1,98%
same,activity at 20 µM,TAO1,92%
same,activity at 20 µM,Fer,97%
same,activity at 20 µM,Yes,63%
same,activity at 20 µM,PKG1α,93%
same,activity at 20 µM,FGFR3,86%
same,activity at 20 µM,EphA2,83%
same,activity at 20 µM,CDK5/p35,99%
same,activity at 20 µM,CDK5/p25,106%
same,activity at 20 µM,IRR,94%
same,activity at 20 µM,SGK,88%
same,activity at 20 µM,IRAK4,91%
same,activity at 20 µM,PKG1β,96%
same,activity at 20 µM,KDR,87%
same,activity at 20 µM,cKit(D816H),109%
same,activity at 20 µM,CaMKIIγ,99%
same,activity at 20 µM,DMPK,108%
same,activity at 20 µM,MSK1,97%
same,activity at 20 µM,CDK2/cyclinE,108%
same,activity at 20 µM,SRPK1,114%
same,activity at 20 µM,PAK2,103%
same,activity at 20 µM,PAK6,99%
same,activity at 20 µM,GSK3β,97%
same,activity at 20 µM,Haspin,87%
same,activity at 20 µM,PASK,88%
same,activity at 20 µM,EGFR(L858R),48%
same,activity at 20 µM,ULK3,95%
same,IC50,LOK,> 30 µM
same,activity at 20 µM,LOK; [2],48%
same,activity at 20 µM,CaMKIIδ,100%
same,activity at 20 µM,Plk1,96%
same,activity at 20 µM,GRK6,98%
same,activity at 20 µM,PKBα,99%
same,IC50,Flt4,4.91 µM
same,activity at 20 µM,Flt4; [2],11%
same,activity at 20 µM,MARK1,113%
same,activity at 20 µM,PDGFRα,106%
same,Dose Escalating Adverse Event Screen / Adverse Pharm Dose,[1],≥ 200 mg/kg
same,Dose Escalating Adverse Event Screen / Adverse Pharm Dose,[1]; listed as MW01-11-108SRM,> 200 mg/kg
same,activity at 20 µM,PI3 Kinase (p110δ/p85α),100%
same,activity at 20 µM,Snk,98%
same,activity at 20 µM,EphB1,92%
